# Data published in ChEMBL document CHEMBL1201862, “PubChem BioAssay data set” (2004).
# Activity calls are given as the source filed them.
# Experiments:
# [1] = target: T1, Bcl-2-related protein A1 (Mus musculus, UniProt Q07440); assay: small-molecule antagonists of Bfl-1/BH3 interaction – biochemical, TR-FRET, mouse Bfl-1, confirmation (AID 621);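 also: TR-FRET binding of GST-Bfl-1 to FITC-labelled Bid peptide via terbium antibody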
# T1 sequence (Q07440 whole entry): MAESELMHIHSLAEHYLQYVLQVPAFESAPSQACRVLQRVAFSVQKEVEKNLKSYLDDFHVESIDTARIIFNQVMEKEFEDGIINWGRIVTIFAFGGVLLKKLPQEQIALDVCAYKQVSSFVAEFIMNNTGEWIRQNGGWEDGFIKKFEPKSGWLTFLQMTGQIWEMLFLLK
# [2] = target: T1, Bcl-2-related protein A1; assay: Bfl-1 binding inhibitors, SAR follow-up, biochemical, fluorescence polarization (AID 1070)
# [3] = target: Glyceraldehyde-3-phosphate dehydrogenase (Homo sapiens, UniProt P04406)
# [4] = Trypanosoma cruzi growth suppression in host cells – NIH3T3 host cells, beta-gal luminescence, confirmation (AID 2044); type: functional, cell-based;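 also: intracellular parasites grown in NIH/3T3 mouse fibroblasts as host cells; luminescent beta-galactosidase reporter signal from transgenic T. cruzi replicating inside host cells; inhibitors lower the luminescence signal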
# [5] = NIH3T3 cell viability loss – ATP luminescence, mouse fibroblasts, counter-screen, dose response (AID 2010); type: functional, cell-based;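 also: cells exposed to compound for about 90 hours before reading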
# [6] = cells
# [7] = loss of viability in HepG2 cells – cell-based, CellTiter-Glo, cherry-picked, cytotoxicity control for Shn3 inhibitor project, dose response (AID 624134); type: functional
# [8] = reduction of Shn3 3'UTR-driven luciferase in osteoblasts – cell-based, Clone20 osteoblasts, firefly luciferase, cherry-picked, dose response (AID 624132); type: functional;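 also: firefly luciferase luminescence from reporter carrying the Shn3 3'UTR in osteoblasts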
# [9] = non-specific 3'UTR reporter inhibition in Clone20-Shn3RL – cell-based, Renilla luciferase, cherry-picked, counter-screen for Shn3 inhibitor project, dose response (AID 624133); type: functional
# [10] = target: E3 ubiquitin-protein ligase Mdm2 (Homo sapiens, UniProt Q00987); assay: MDM2-luc reporter signal enhancers, multi-concentration potency testing, MDM2 ubiquitin-protein ligase inhibitor program, whole-cell format, luminescence detection, 384-well microplate (AID 1394); type: functional;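 also: MDM2 E3 inhibitors raise luminescence so EC50 is for signal enhancement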
# [11] = system: Streptococcus; assay: GAS UMAA2166 growth inhibition – luminescence, BacTiterGlo, counter-screen for streptokinase expression inhibitor project, dose response (AID 1915); type: functional, organism-based;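 also: potency for reduction of bacterial viability or growth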
# [12] = target: T2, Aminopeptidase N (Plasmodium falciparum FcB1/Columbia, UniProt O96935); assay: malaria alanyl aminopeptidase activity blockers – biochemical, fluorogenic H-Leu-NHMec substrate, 1536-well (AID 1445); parameters: species or system Plasmodium falciparum 3D7, 3D7
# T2 sequence (O96935 whole entry): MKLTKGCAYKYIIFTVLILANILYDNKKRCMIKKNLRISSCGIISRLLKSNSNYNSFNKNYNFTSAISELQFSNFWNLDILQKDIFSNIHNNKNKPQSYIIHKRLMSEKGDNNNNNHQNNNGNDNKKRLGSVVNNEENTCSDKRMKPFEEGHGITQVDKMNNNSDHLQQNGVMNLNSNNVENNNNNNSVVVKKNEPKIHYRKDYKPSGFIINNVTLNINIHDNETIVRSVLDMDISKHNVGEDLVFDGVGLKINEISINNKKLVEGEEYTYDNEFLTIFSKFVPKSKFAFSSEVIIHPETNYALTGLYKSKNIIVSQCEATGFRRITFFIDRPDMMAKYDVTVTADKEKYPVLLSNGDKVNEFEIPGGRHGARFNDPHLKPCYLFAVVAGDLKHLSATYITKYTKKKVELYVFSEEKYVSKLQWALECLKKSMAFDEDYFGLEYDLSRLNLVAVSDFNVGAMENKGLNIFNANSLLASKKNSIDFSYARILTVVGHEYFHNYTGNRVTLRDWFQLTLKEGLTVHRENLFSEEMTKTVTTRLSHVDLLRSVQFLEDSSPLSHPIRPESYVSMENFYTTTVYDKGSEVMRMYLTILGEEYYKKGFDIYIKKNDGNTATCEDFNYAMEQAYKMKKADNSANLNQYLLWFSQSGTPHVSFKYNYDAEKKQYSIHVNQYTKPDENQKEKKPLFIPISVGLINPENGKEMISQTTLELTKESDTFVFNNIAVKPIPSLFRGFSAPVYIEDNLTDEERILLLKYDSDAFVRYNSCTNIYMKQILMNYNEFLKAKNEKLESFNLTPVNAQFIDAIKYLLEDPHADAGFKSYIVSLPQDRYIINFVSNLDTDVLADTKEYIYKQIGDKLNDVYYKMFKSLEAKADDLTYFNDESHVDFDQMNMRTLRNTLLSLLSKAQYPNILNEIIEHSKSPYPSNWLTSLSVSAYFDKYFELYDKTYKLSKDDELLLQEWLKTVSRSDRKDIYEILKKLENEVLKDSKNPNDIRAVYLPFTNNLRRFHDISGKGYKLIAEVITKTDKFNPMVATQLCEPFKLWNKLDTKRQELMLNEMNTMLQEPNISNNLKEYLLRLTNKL
# [13] = target: T3, Probable nicotinate-nucleotide adenylyltransferase (Staphylococcus aureus (strain N315), UniProt P65502); type: functional, Staphylococcus aureus subsp. aureus N315;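 as to IC50 Mean: confirmatory dose-response retesting of NadD inhibitor hits first found in an ultra-high-throughput screen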
# [14] = target: T3, Probable nicotinate-nucleotide adenylyltransferase; type: functional, Staphylococcus aureus subsp. aureus N315; settings: read-out: IC50_Mean
# [15] = system: Streptococcus sp. 'group A'; assay: Streptococcus pyogenes SK(-)GAS viability under kanamycin – luminescence, BacTiterGlo, confirmation, counter-screen for streptokinase expression inhibitor project, dose response (AID 1900); type: functional, organism-based
# [16] = target: Bifunctional protein GlmU (Mycobacterium tuberculosis, UniProt P9WMN3); assay: Inhibitors of Mycobacterial Glucosamine-1-phosphate acetyl transferase (GlmU). Secondary screen.; parameters: species or system Mycobacterium tuberculosis H37Rv
# [17] = target: Induced myeloid leukemia cell differentiation protein Mcl-1 (Homo sapiens, UniProt Q07820); type: functional
# [18] = target: T4, Streptokinase A (Streptococcus pyogenes serotype M1, UniProt P10520); assay: viability-normalized secreted streptokinase activity reduction – plasminogen activation absorbance, OD405, dose response (AID 1914); type: functional, Streptococcus pyogenes M1 GAS;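 also: secreted streptokinase activity via plasminogen activation per viability signal from cell pellet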
# T4 sequence (P10520 whole entry): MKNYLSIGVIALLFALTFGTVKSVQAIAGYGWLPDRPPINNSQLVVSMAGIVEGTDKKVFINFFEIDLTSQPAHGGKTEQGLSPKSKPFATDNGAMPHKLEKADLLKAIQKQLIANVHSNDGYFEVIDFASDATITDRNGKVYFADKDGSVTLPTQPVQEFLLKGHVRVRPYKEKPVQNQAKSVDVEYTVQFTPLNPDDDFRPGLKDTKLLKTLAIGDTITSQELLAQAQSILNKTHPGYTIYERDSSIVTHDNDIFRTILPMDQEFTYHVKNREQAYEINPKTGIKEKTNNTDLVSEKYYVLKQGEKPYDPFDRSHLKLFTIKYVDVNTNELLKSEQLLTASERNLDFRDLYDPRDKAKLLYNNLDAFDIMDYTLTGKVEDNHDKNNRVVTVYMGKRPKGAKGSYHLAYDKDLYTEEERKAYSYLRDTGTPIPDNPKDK
# [19] = Luminescence Cell-Based Dose Confirmation HTS to Identify Activators of 5'UTR Stem-Loop Driven Alpha-Synuclein mRNA Translation in H4 Neuroglioblastoma Cells. [Related pubchem assays: 1829 (Project Summary), 1814 (Primary HTS)]; type: functional
# [20] = Luminescence Cell-Based Dose Response HTS to Identify Activators of Luciferase Translation or Activity in H4 […] Cells. [Related pubchem assays: 1829 (Project Summary), 1814 (Primary HTS)]; type: functional
# [21] = target: Voltage-gated inwardly rectifying potassium channel KCNH2 (Homo sapiens, UniProt Q12809); assay: concentration-dependent hERG rescue from blockers – cell-based, thallium flux, dose response (AID 2121); type: ADME
# [22] = system: H4; assay: Luminescence Cell-Based Dose Response HTS to Identify Activators of 5'UTR Stem-Loop Driven Prion Protein mRNA Translation in H4 Neuroglioblastoma Cells. [Related pubchem assays: 1829 (Project Summary), 1814 (Primary HTS)]; type: functional; settings: Homo sapiens
# [23] = target: Heat shock protein HSP 90-alpha (Homo sapiens, UniProt P07900); type: functional, organism-based
# [24] = target: Ephrin type-A receptor 4 (Mus musculus, UniProt Q03137); assay: EphA4 ligand-binding antagonists – biochemical, colorimetric, mouse EphA4, primary screen (AID 689); type: functional
# [25] = target: T5, CAAX prenyl protease 2 (Saccharomyces cerevisiae S288c, UniProt Q03530); type: biochemical
# T5 sequence (Q03530 whole entry): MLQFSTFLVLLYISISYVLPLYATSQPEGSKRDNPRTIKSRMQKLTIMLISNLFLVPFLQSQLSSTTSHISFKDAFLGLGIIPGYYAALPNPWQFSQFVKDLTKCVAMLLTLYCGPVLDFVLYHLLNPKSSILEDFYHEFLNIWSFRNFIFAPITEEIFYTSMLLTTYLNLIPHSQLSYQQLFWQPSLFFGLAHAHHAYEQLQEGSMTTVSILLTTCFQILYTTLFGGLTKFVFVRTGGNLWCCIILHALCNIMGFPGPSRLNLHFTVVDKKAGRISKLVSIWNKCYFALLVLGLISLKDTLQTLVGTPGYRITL
# [26] = viability loss of HPDE-C7K cells – cell-based, fluorescence, HTS, primary screen (AID 431); type: functional; settings: Homo sapiens
# [27] = target: T6, Heat shock factor protein 1 (Mus musculus, UniProt P38532); assay: decrease of HSF1-responsive luciferase luminescence – cell-based, NIH3T3, dose retest, confirmation (AID 2382); type: functional;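 also: NIH3T3 fibroblasts with HSF1-driven luciferase reporter stressed by proteasome inhibitor MG132; luminescence from HSF1-driven luciferase expression after 8 hours of MG132 stress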
# T6 sequence (P38532 whole entry): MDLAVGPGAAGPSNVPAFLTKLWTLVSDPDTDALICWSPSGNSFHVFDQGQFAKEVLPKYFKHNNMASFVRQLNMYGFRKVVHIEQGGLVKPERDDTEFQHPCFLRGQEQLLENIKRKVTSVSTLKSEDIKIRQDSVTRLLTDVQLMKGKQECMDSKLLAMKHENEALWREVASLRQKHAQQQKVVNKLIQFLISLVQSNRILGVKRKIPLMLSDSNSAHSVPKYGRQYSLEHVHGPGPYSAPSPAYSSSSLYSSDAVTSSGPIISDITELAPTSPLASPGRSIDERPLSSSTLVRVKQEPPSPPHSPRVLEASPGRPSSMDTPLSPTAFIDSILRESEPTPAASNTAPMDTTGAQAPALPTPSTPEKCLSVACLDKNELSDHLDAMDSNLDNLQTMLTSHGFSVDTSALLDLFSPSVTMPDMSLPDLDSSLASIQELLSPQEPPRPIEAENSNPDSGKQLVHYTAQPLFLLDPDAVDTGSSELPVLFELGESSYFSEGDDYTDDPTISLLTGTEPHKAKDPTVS
# [28] = target: Sphingosine 1-phosphate receptor 2 (Homo sapiens, UniProt O95136); assay: Dose Response Cell Based Assay for Antagonists of the S1P2 Receptor. [Related pubchem assays: 856, 736 ]; type: functional
# [29] = HPDE-C7 pancreatic duct cell viability loss – fluorescence, HTS (AID 430); type: functional, cell-based; settings: Homo sapiens
# Sequence of E3 ubiquitin-protein ligase Mdm2 (Q00987 whole entry): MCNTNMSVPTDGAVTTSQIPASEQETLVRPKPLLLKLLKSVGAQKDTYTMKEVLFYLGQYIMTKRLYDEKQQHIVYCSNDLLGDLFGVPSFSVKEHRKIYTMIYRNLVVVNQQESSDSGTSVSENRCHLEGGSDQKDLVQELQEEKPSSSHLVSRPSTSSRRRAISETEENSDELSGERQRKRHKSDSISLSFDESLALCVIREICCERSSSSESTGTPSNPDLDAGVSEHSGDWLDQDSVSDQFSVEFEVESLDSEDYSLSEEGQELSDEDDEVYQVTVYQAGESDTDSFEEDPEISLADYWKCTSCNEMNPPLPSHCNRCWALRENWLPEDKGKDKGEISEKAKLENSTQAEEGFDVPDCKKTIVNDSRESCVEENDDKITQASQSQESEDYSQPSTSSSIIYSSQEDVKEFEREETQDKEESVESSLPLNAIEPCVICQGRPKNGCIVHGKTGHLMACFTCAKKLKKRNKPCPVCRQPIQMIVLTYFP
# Sequence of Glyceraldehyde-3-phosphate dehydrogenase (P04406 whole entry): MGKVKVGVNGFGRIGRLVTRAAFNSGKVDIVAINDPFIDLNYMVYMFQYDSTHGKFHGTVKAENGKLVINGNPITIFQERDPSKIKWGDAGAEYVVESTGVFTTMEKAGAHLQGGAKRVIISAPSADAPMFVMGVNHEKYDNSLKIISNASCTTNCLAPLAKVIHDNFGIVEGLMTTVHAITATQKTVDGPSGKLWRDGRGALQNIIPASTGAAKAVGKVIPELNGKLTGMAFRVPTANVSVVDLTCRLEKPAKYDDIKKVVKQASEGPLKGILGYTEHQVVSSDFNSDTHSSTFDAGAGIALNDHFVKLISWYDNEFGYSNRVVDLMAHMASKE
# Sequence of Voltage-gated inwardly rectifying potassium channel KCNH2 (Q12809 whole entry): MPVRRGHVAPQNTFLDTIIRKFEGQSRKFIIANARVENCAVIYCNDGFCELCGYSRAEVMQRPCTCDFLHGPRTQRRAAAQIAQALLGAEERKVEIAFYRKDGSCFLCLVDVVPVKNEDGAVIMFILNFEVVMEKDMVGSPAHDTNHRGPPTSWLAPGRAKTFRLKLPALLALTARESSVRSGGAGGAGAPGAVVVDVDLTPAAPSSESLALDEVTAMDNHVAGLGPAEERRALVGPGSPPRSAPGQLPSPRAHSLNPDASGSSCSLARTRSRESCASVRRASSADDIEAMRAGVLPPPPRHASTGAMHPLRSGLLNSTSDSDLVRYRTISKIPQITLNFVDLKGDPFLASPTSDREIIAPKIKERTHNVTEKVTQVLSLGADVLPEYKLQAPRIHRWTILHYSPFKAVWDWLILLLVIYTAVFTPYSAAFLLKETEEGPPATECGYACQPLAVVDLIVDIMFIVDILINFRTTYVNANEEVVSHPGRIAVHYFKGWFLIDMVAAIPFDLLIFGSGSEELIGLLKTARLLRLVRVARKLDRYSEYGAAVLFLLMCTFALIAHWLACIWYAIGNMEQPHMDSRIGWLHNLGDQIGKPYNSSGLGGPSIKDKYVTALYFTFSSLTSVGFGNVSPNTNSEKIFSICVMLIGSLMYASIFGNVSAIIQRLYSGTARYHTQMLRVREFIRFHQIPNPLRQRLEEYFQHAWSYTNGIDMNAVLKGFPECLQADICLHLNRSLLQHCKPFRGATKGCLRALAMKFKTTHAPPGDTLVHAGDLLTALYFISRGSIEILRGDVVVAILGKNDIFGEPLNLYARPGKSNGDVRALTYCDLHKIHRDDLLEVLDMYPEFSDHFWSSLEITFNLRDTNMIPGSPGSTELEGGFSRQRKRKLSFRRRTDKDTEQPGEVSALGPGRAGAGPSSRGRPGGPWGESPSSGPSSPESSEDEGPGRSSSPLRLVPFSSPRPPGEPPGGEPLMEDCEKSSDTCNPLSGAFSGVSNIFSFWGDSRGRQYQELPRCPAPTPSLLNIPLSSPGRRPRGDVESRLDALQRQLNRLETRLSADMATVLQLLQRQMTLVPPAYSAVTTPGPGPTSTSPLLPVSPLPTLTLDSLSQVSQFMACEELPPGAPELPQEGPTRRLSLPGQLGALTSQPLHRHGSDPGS
# T3 sequence (P65502 whole entry): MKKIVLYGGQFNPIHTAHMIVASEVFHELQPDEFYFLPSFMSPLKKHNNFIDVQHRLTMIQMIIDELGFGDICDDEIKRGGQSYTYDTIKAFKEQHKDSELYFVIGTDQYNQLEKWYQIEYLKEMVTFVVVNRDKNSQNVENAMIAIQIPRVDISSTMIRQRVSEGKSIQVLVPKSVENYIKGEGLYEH
# Sequence of Induced myeloid leukemia cell differentiation protein Mcl-1 (Q07820 whole entry): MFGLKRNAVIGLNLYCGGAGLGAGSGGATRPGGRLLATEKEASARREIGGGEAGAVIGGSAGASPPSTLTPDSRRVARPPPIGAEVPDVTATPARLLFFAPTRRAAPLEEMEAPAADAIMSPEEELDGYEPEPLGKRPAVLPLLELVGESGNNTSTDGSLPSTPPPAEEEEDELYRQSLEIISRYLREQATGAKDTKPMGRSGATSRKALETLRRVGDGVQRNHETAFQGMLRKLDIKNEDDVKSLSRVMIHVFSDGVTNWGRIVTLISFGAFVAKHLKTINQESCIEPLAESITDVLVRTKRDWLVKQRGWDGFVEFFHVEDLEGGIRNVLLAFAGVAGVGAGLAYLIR
# Sequence of Sphingosine 1-phosphate receptor 2 (O95136 whole entry): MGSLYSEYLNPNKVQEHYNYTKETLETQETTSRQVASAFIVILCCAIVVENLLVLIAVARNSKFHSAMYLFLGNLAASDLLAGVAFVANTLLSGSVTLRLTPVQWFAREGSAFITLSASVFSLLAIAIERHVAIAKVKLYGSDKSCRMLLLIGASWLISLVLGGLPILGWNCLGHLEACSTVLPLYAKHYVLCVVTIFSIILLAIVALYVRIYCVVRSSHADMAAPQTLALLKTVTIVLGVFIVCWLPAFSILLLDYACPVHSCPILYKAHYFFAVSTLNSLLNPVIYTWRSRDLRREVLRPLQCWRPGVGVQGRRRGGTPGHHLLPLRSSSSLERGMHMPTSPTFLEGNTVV
# Sequence of Ephrin type-A receptor 4 (Q03137 whole entry): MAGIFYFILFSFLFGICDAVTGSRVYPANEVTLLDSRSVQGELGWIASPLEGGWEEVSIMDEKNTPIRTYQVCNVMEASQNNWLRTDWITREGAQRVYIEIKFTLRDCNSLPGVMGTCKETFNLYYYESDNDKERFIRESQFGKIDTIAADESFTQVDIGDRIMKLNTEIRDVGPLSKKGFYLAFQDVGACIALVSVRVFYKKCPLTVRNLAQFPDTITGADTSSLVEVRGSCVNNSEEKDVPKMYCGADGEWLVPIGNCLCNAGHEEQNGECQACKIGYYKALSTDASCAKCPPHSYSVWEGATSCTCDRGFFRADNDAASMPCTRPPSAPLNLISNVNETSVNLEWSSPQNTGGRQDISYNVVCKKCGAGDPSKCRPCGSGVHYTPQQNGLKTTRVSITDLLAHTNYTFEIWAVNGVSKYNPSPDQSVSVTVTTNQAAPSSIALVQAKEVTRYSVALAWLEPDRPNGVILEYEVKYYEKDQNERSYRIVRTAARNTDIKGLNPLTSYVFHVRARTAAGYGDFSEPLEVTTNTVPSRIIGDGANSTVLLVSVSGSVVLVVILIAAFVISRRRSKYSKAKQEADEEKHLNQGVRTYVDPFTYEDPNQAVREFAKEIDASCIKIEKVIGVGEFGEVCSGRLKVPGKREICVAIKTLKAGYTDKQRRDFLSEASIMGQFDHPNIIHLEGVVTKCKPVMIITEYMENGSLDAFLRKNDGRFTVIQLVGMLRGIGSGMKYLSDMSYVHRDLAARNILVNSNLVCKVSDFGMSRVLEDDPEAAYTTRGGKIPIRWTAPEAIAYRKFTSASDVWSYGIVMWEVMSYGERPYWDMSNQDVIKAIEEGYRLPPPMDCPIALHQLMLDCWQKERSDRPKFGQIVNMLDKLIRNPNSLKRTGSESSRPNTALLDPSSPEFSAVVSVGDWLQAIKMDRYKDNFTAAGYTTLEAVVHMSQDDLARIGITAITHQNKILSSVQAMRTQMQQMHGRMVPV
# Sequence of Bifunctional protein GlmU (P9WMN3 whole entry): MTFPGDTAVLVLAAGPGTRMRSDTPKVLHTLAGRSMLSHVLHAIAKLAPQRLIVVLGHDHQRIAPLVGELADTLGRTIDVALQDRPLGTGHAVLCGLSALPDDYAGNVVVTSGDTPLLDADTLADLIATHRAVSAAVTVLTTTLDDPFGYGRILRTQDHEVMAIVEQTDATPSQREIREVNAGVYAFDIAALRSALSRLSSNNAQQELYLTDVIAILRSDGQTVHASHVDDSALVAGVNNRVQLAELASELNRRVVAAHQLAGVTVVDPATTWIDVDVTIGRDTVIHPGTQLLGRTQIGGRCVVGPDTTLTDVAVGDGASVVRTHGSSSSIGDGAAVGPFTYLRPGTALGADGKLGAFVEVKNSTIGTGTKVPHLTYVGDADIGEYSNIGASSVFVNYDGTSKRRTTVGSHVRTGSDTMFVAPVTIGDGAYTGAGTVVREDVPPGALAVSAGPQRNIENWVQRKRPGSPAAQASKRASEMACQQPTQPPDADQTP
smiles,measurement,setting,value
NCCN1CCN(C2=C(Cl)C(=O)N(c3ccc(Cl)c(Cl)c3)C2=O)CC1,IC50,[1],> 100 µM (not active)
same,IC50,[2],> 100 µM (not active)
same,IC50,[3],> 100 µM (not active)
COc1ccc(N2CCN(C(CNC(=O)Oc3ccccc3)c3cccnc3)CC2)cc1 (stereo not given),EC50,[4],< 0.1 µM (active)
same,EC50,[5],> 30 µM (not active)
same,EC50,[6],0.087 µM (active)
Cc1cc(C)nc(S/C=C/C(=O)c2ccccc2)n1,AC50,[7],42.4 µM (active)
same,AC50,[8],1.72 µM (active)
same,AC50,[9],9.3 µM (active)
same,EC50,[10],1.32 µM (active)
COc1ccc(C(=O)OC2CCN(C)CC2)cc1,EC50,[4],< 0.1 µM (active)
same,EC50,[5],> 60 µM (not active)
same,EC50,[6],0.077 µM (active)
O=C(N/N=C/c1ccc(-c2ccc(Cl)c(C(=O)O)c2)o1)c1cc2c(ccc3ccccc32)o1,EC50,[11],66.6 µM (inconclusive)
same,IC50,[12],9.45 µM (active)
same,IC50,[13],3.91 µM (active)
same,IC50,[14],10.7 µM (active)
same,EC50,[15],3.13 µM (active)
same,IC50,[16],58.8 µM (active)
same,IC50,[17],1.55 µM (active)
same,EC50,[18],> 150 µM (not active)
COc1ccc(C2C(C(=O)N3CCCCC3)CCC(=O)N2c2cc(OC)c(OC)c(OC)c2)cc1 (stereo not given),EC50,[10],47.1 µM (not active)
COc1cccc([C@@H]2Oc3ccc(OC)cc3C(=O)[C@H]2OC(=O)NCc2ccc3c(c2)OCO3)c1,EC50,[19],16.3 µM (active)
same,EC50,[20],16.6 µM (active)
same,EC50,[21],4.06 µM (active)
same,EC50,[22],46.4 µM (active)
O=C(CCSc1ccc(Br)cc1)c1ccc(O)cc1,AC50,[23],1.81 µM (active)
same,EC50,[21],1.17 µM (active)
CC1CCCN(c2nc3ccccc3nc2C(C#N)C(=O)OC2CCCCC2)C1 (stereo not given),IC50,[24],9.81 µM (active)
O=C1C(Cl)=C(N2CCN(c3ccccc3F)CC2)C(=O)N1c1ccc(Cl)c(Cl)c1,IC50,[1],> 100 µM (not active)
same,IC50,[2],> 100 µM (not active)
same,IC50,[3],> 100 µM (not active)
CCCC(=O)N1CCN(c2ccc(NC(=O)c3cc4ccccc4o3)cc2Cl)CC1,AC50,[25],11.5 µM (active)
same,AC50,[7],7.37 µM (active)
same,EC50,[26],7.44 µM (active)
same,EC50,[27],7.51 µM (active)
same,AC50,[8],4.1 µM (active)
same,AC50,[9],8.96 µM (active)
same,IC50,[28],4.67 µM (active)
same,EC50,[29],7.87 µM (active)
